According to PubChem BioAssay (NCI):
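Each compound was tested at five concentrations against cells in 96-well plates for 48 hours. TGI: total growth inhibition.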

Tests used:
Assay in all cases: growth of human tumour cells (NCI), 48 h
[1] = test system: IGROV1 ovarian
[2] = test system: OVCAR-4 ovarian
[3] = test system: NCI-H226 lung
[4] = test system: K-562 leukemia
[5] = test system: UO-31 renal
[6] = test system: HT29 colon
[7] = test system: MDA-MB-435
[8] = test system: PC-3 prostate
[9] = test system: MCF7 breast
[10] = test system: UACC-62 melanoma
[11] = test system: A498 renal
[12] = test system: U251 CNS
[13] = test system: BT-549 breast
[14] = test system: SR leukemia
[15] = test system: NCI-H23 lung
[16] = test system: HCT-15 colon
[17] = test system: SNB-19 CNS
[18] = test system: A549 NSCLC
[19] = test system: CCRF-CEM leukemia
[20] = test system: COLO 205 colon
[21] = test system: LOX IMVI melanoma
[22] = test system: HOP-62 NSCLC
[23] = test system: SNB-75 CNS
[24] = test system: MDA-N
[25] = test system: HOP-92 NSCLC
[26] = test system: DU-145 prostate
[27] = test system: SN12C renal
[28] = test system: TK-10 renal
[29] = test system: SF-295 CNS
[30] = test system: HL-60(TB) leukemia
[31] = test system: SK-MEL-28 melanoma
[32] = test system: KM12 colon
[33] = test system: SK-OV-3 ovarian
[34] = test system: MALME-3M melanoma
[35] = test system: ACHN renal
[36] = test system: RPMI-8226 leukemia
[37] = test system: NCI/ADR-RES ovarian
[38] = test system: MOLT-4 leukemia
[39] = test system: EKVX NSCLC
[40] = test system: NCI-H522 lung
[41] = test system: T-47D breast
[42] = test system: CAKI-1 renal
[43] = test system: NCI-H460 lung
[44] = test system: OVCAR-3 ovarian
[45] = test system: 786-0 renal
[46] = test system: SK-MEL-5 melanoma
[47] = test system: MDA-MB-231 breast
[48] = test system: OVCAR-8 ovarian
[49] = test system: HCC-2998 colon
[50] = test system: M14 melanoma
[51] = test system: HCT-116 colon
[52] = test system: HS 578T breast
[53] = test system: SW-620 colon
[54] = test system: SF-268 CNS
[55] = test system: UACC-257 melanoma
[56] = test system: RXF 393 renal
[57] = test system: SF-539 CNS
[58] = test system: OVCAR-5 ovarian
[59] = test system: SK-MEL-2 melanoma

Measured: TGI

CCCCN(C(=O)c1ccccc1)C1CCC(=O)c2[nH]c3ccccc3c21 (centres undefined)
84 µM: [42]
93.4 µM: [3]
89.9 µM: [41]
51.2 µM: [52]
68.8 µM: [36]
84.5 µM: [25]
41.4 µM: [14]
75.2 µM: [23]
29.6 µM: [30]
48.1 µM: [20]
49.9 µM: [46]
70 µM: [56]
not listed: [58] | [59]
> 100 µM: all other assays above

N#CC(NCCc1ccccc1)c1ccccc1 (centres undefined)
not listed: [4] | [11]
> 100 µM: all other assays above
